According to patent publication US20240182491A1, “SUBSTITUTED FUSED BICYCLIC MACROCYCLIC COMPOUNDS AND RELATED METHODS OF TREATMENT” (Alkermes, Inc., priority 2021, published 2024):

Molecular target: T1, human orexin-2 receptor (OX2R) (Homo sapiens, UniProt O43614)
T1 construct: expressed in transfected cells
T1 sequence (O43614 1-444): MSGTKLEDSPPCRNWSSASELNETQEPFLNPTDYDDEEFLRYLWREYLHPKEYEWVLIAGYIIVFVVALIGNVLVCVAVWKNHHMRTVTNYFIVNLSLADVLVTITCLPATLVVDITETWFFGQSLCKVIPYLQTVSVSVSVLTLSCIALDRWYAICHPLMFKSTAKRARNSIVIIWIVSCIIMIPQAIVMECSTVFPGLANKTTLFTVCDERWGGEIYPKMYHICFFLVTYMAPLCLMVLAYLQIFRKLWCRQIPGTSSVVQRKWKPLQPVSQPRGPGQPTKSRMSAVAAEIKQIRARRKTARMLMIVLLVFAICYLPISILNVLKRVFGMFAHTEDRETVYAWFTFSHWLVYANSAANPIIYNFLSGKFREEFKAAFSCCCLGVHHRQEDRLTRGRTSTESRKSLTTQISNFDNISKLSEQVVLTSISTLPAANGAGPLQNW
Assay: Human OX2R IP1 assay
Type: cell-based
Conditions: T-Rex CHO cells stably overexpressing human OX2R; inositol monophosphate (IP1) accumulation, 1 hr at 37 degrees C; mean EC50
Experimental: T-Rex CHO cells stably overexpressing the human orexin-2 receptor (OX2R) were induced overnight with 1 μg/mL of doxycycline in a T225 flask. 24 hours post induction, cells were lifted with accutase and plated into a 384-well proxy plate at 30,000 cells/well. Cells were then treated with different test compounds in 1× stimulation buffer containing 10 mM Hepes, 1 mM CaCl2), 0.5 mM MgCl2, 4.2 mM KCl, 146 mM NaCl, 5.5 mM glucose, and 50 mM LiCl, pH 7.4, for 1 hr at 37 degrees C. Following incubation, the reaction was terminated by the addition of detection mix, which is composed of IP1-d2 and anti-IP1-cryptate diluted in lysis buffer as well as 1× stimulation buffer. The plates were allowed to incubate for 1 hour at room temperature and were then read in the EnVision® multimode plate reader, measuring inositol phosphate levels.
Cisbio IP1 is a cell-based functional assay quantifying the accumulation of inositol monophosphate (IP), a metabolite released as a result of orexin 2 receptor activation through the phospholipase C-Gq signaling pathway. This is a competitive immunoassay in which the IP1 produced by the cells upon receptor activation competes with the IP1 analog coupled to the d2 fluorophore (acceptor) for binding to an anti-IP1 monoclonal antibody labeled with Eu cryptate (donor). The measured HTRF-FRET based signal is inversely proportional to the IP1 concentration produced.
The EC50 values reported in Table 2 were obtained according to the human OX2R IP1 assay described above. Data are the mean EC50 values ±S.E.M.

SMILES | EC50 [nM]
O=C1COc2cc3[nH]ncc3cc2C2CCC(CC2)OCC2[C@@H](NS(=O)(=O)C(F)(F)F)CCN12 (stereo partly drawn) [Compound 5] | 100 to 1000
CS(=O)(=O)N[C@H]1CCN2C(=O)COc3cc4[nH]ncc4cc3[C@H]3CC[C@H](CC3)OC[C@@H]12 [Compound 6] | 100 to 1000
CS(=O)(=O)N[C@H]1CCCN2C(=O)COc3cc4[nH]ncc4cc3[C@H]3CC[C@H](CC3)OC[C@@H]12 [Compound 10] | < 100
